# Test results taken from patent US20260234135A1, “CRYSTALLINE FORMS OR SALTS OF A DEUTERATED COMPOUND” (ALEBUND PHARMACEUTICALS (HONG KONG) LIMITED, priority 2023, published 2026).
# Experiments:
# [1] = test system: db/db type 2 diabetes model; assay: db/db type 2 diabetes model (body weight, serum TG, random blood glucose); settings: for Serum TG levels compared with the vehicle group / Average daily body weights compared with the vehicle group: Aleglitazar 0.2 mg/kg; for Serum TG levels compared with the vehicle group: Compound 2 at different dosages; for Average daily body weights compared with the vehicle group: Day 10 to Day 15, Compound 2 0.05, 0.2, 1 mg/kg; for Level of lipid, free fatty acid and blood glucose compared with vehicle group: summary, all groups
# Source text: 45 Db/db mice were evenly divided into 5 groups before the initiation of treatment based on the body weights, serum triglyceride (TG) levels, and random blood glucose levels.
# All animals were weighed daily before each dosing and treated daily for 14 consecutive days.
# All the data was imported into an Excel file and presented as Mean±SEM. Graphpad Prism 7.0 software was used for data statistical analysis by One-way or Two-way ANOVA, with P<0.05 as the criterion of significant differences.
# [2] = test system: db/db type 2 diabetes model; assay: Oral glucose tolerance test (OGTT) in db/db animals; assay type: in vivo, db/db mice; settings: for OGTT blood glucose levels at each time point compared with the vehicle group: within 120 minutes, different dosages
# Method: At the end of the experiment, oral glucose tolerance tests were carried out on the db/db animals treated by different compounds. […] .
# [3] = test system: diabetic nephropathy model; assay: Diabetic nephropathy pharmacodynamic model (uninephrectomized db/db mice); assay type: in vivo, db/db: BLKS male mice
# Source text: At the age of 6 weeks, db/db mice were anesthetized with 2.5% […] and subjected to uninephrectomy with removal of right kidney. Buprenorphine was applied after surgery.
# 11.1.2 Procedure. Two weeks after surgery, db/db mice were randomly assigned into 5 groups. Wild type mice were used for the control animals. […] Compounds were orally administrated once per day for 10 weeks.
# At the 5th and 9th week after compound administration, mice were placed in metabolic cages for urine collection. Albumin level was measured for 24 hr albumin excretion calculation. At the 10th week after treatment, the animals were sacrificed for kidney dissection. The kidney was fixed in 10% neutral buffed formalin, then paraffin-embedded for histopathological analysis. Glomerulosclerosis was assessed by evaluating glomerular basement membrane, mesangial expansion, nodular sclerosis and glomerulosclerosis. Severity was graded as follows: 0: normal; 1: Glomerular basement membrane thickening: isolated glomerular basement membrane thickening and only mild, nonspecific changes by light microscopy; 2: Mesangial expansion mild (IIa) or severe (IIb): glomeruli with mild or severe mesangial expansion but without nodular sclerosis or global glomerulosclerosis in more than 50% of glomeruli; 3: Nodular sclerosis: at least one glomerulus with nodular increase in mesangial matrix; 4: Advanced diabetic glomerulosclerosis: more than 50% global glomerulosclerosis with other clinical or pathological evidence that sclerosis is attributable to diabetic nephropathy. Renal tubular injury was scored as follows: 0: no obvious lesions; 1: up to 25% involvement of tubular lesion; 2: lesion in 25% to 50% of renal tubular; 3: 50% to 75% of renal tubular lesion and grade 4: >75% tubular lesion.
# Graphpad 8.0 software was used for statistical analysis. The difference between the values were analyzed with one-way ANOVA. The difference between histopathological score was analyzed with Kruskal-Wallis nonparameter test. All values were compared with the group 2.
# [4] = 7-day repeated oral gavage, body weights of ICR mice; assay type: in vivo; settings: for Weight Gain (g) compared with Day 0: n = 10
# Source text: 50 male ICR mice aged 6-8 weeks; source: Laboratory Animal Business Department, Shanghai Institute of Planned Parenthood Research.
# After 3 days of acclimatization, ICR mice were grouped according to their body weights. The day of grouping is designated as Day 0. […] The animals were weighed and recorded daily.
# [5] = test system: rat model of hyperlipidemia induced by high cholesterol diet; assay: Rat model of hyperlipidemia induced by high cholesterol diet (serum TG, NEFA); assay type: in vivo, Sprague-Dawley rats; settings: for Serum NEFA compared with the vehicle group / Serum TG compared with the vehicle group: 0.2 mg/kg and 0.6 mg/kg oral, after 7 days of treatment (Day 8)
# Source text: 8.2.1 High cholesterol diet (ASHF4) was used to induce an animal model of hyperlipidemia in the SD rats.
# 8.2.2 The male SD rats were fed with high cholesterol diet (ASHF4, Dyet, China) for 14 days. On the day before the start of the administration (Day 0), the animals were divided into 5 groups based on body weights and serum indicators and were continually fed with the high-cholesterol diet. The treatment groups were orally dosed with either compound or vehicle while continuing the high-cholesterol diet for a total of 1 week. The animals were weighed daily before the treatment, and the compounds were given at 9:00-9:30 in the morning based on the body weight of the day.
# 8.2.3 Animal blood was collected, and serum was separated for the analysis of serum lipid indicators on the day before the treatment and at the end of the last day for the experiment.
# 8.2.4 Serum indicators of triglyceride (TG) and free fatty acid (NEFA) were determined by an automatic blood biochemical analyzer.
# [6] = test system: rat model of unilateral ureteral obstruction; assay: Rat model of unilateral ureteral obstruction, renal injury; settings: 0.2 mg/kg oral daily, 14 treatment days
# Method: Housing temperature was maintained at 20-26° C. and humidity at 40%-60%. Rats were fed with a standard chow and allowed to access food and water ad libitum.
# The formulation was prepared twice a week.
# Vehicle or compounds were administrated by orally gavage daily. Unilateral ureteral obstruction was performed on the second day of compound treatment. Animals in model group, reference group and compound group underwent urethral ligation under isoflurane anesthesia one hour after receiving compound administration. A flank incision was cut to expose the left ureter, and a 4-0 surgical suture was used to perform two-point ligation to achieve urethral obstruction. Ureter was cut between the two ligation points. Animals in the control group were subjected to the same surgical treatment except the ligation and cut. After surgery, animals in each group continually received vehicle or compound for 12 more days, for a total of 14 treatment days.
# Rats were sacrificed after 14 days' compound treatment. The obstructed kidney was weighed and collected for histology. The tissue samples were fixed with formalin, and then paraffin embedded. The embedded tissue was sectioned and stained with hematoxylin & eosin and Masson trichrome to assess kidney structure and fibrosis.
# The multiple comparison was analyzed with the Kruskal-Wallis non-parameter test. […]
# [7] = Inter-conversion relationship (slurry competition) and form stability of free acid forms; settings: storage at RT for 1 month, XRPD
# [8] = phase 3 clinical trials; cited from earlier work
# [9] = 0.2 mg/kg (Aleglitazar P<0.001; Compound 2 P<0.01)
# [10] = 0.2 mg/kg oral QDx7 days, Day 1, ICR mice
# [11] = 0.2 mg/kg oral QDx7 days, Day 2, ICR mice
# [12] = 0.2 mg/kg oral QDx7 days, Day 3, ICR mice
# [13] = 0.2 mg/kg oral QDx7 days, Day 4, ICR mice
# [14] = 0.2 mg/kg oral QDx7 days, Day 5, ICR mice
# [15] = 0.2 mg/kg oral QDx7 days, Day 6, ICR mice
# [16] = 0.2 mg/kg oral QDx7 days, Day 7, ICR mice
# [17] = 1 mg/kg oral QDx7 days, Day 1, ICR mice
# [18] = 1 mg/kg oral QDx7 days, Day 2, ICR mice
# [19] = 1 mg/kg oral QDx7 days, Day 3, ICR mice
# [20] = 1 mg/kg oral QDx7 days, Day 4, ICR mice
# [21] = 1 mg/kg oral QDx7 days, Day 5, ICR mice
# [22] = 1 mg/kg oral QDx7 days, Day 6, ICR mice
# [23] = 1 mg/kg oral QDx7 days, Day 7, ICR mice
# [24] = Day 8, 0.2 mg/kg oral QDx7 days
# [25] = Day 8, 0.6 mg/kg oral QDx7 days
smiles,measurement,setting,value
[2H]C([2H])(Cc1nc(-c2ccccc2)oc1C)Oc1ccc(C[C@H](OC)C(=O)O)c2sccc12 [Compound 2],"Serum TG, rank of effect among groups","[1]; 1 mg/kg (Group 6), Day 6 and Day 12",largest effect
same,statistical difference (p) of the blood glucose level between treatment group and vehicle group,"[1]; 0.2 mpk, Day 0, db/db mice",p > 0.05
same,Serum TG levels compared with the vehicle group,[1]; Day 6 and Day 12,significantly lower
same,Random blood glucose reduction compared with the vehicle group,"[1]; Day 7, 1 mg/kg",reached statistical significance
same,Average daily body weights compared with the vehicle group,[1],significantly higher
same,Random blood glucose lowering compared with the vehicle group,"[1]; Day 14, 0.05 mg/kg",did not reach statistical significance
same,"Random blood glucose lowering vs vehicle, compared with Day 7","[1]; Day 14, 1 mg/kg",more pronounced effect of blood glucose lowering
same,Effect on lowering blood glucose compared with Aleglitazar,[1]; overall,slightly weaker effect
same,"Level of lipid, free fatty acid and blood glucose compared with vehicle group",[1],significantly decreased
same,OGTT blood glucose compared with the vehicle group,"[2]; 0.05 mg/kg (Group 4), all time points",trend of decrease but did not reach statistical significance
same,OGTT AUC0-120 min compared with the vehicle group,[2]; [9],significantly lower
same,OGTT AUC0-120 min compared with the vehicle group,"[2]; 1 mg/kg, P<0.0001",significantly lower
same,OGTT AUC0-120 min compared with Aleglitazar,[2]; same dose level (0.2 mg/kg),higher
same,OGTT blood glucose levels at each time point compared with the vehicle group,[2],significantly reduced
same,24-hour urinary albumin,"[3]; 5th and 9th weeks after compound administration, 0.1, 0.3, 1 mg/kg oral once per day",significantly decreased
same,Glomerular damage and glomerular hypertrophy,[3]; 10 weeks treatment,suppressed the glomerular damage and ameliorate the glomerular hypertrophy
same,Renal tubular injury,[3]; all dosage levels,improved the tubular injury at some extend
same,Glomerular volume,[3]; high dose (1 mg/kg),statistically significantly reduced
same,Glomerulosclerosis histopathological score,[3]; high dose (1 mg/kg),statistically significantly reduced
same,Weight Gain (g) compared with Day 0,[4]; [10],0.45 ± 0.28 g
same,Weight Gain (g) compared with Day 0,[4]; [11],1.42 ± 0.22 g
same,Weight Gain (g) compared with Day 0,[4]; [12],2.56 ± 0.23 g
same,Weight Gain (g) compared with Day 0,[4]; [13],2.96 ± 0.23 g
same,Weight Gain (g) compared with Day 0,[4]; [14],3.73 ± 0.34 g
same,Weight Gain (g) compared with Day 0,[4]; [15],4.66 ± 0.39 g
same,Weight Gain (g) compared with Day 0,[4]; [16],5.08 ± 0.42 g
same,Daily weight gain compared with the vehicle group,"[4]; 0.2 mg/kg, throughout the study",no significant difference
same,Weight Gain (g) compared with Day 0,[4]; [17],0.4 ± 0.17 g
same,Weight Gain (g) compared with Day 0,[4]; [18],1.57 ± 0.26 g
same,Weight Gain (g) compared with Day 0,[4]; [19],2.71 ± 0.19 g
same,Weight Gain (g) compared with Day 0,[4]; [20],3.61 ± 0.19 g
same,Weight Gain (g) compared with Day 0,[4]; [21],3.96 ± 0.29 g
same,Weight Gain (g) compared with Day 0,[4]; [22],4.84 ± 0.4 g
same,Weight Gain (g) compared with Day 0,[4]; [23],5.44 ± 0.36 g
same,"Weight gain, significance compared with vehicle, One-way ANOVA","[4]; 1 mg/kg, Day 4",** (**p < 0.01)
same,Average daily weight gain compared with the vehicle group,"[4]; 1 mg/kg, Day 4 and 5",significantly higher
same,"Weight gain, significance compared with vehicle, One-way ANOVA","[4]; 1 mg/kg, Day 5",* (* p < 0.05)
same,Serum NEFA compared with the vehicle group,[5],significantly reduce
same,Serum TG compared with the vehicle group,[5],significantly reduce
same,Serum NEFA compared with Aleglitazar,"[5]; 0.2 mg/kg, T-test, P<0.05",significantly reduce
same,Serum TG compared with Aleglitazar,"[5]; 0.2 mg/kg, T-test, P<0.05",significantly reduce
same,"serum TG, significance compared with the first group (vehicle), One-way ANOVA",[5]; [24],*** (***p < 0.001)
same,"serum TG, significance compared with the first group (vehicle), One-way ANOVA",[5]; [25],*** (***p < 0.001)
same,Total score of renal focal lesions compared to the model group,[6],significantly improved
[2H]C([2H])(Cc1nc(-c2ccccc2)oc1C)Oc1ccc(C[C@H](OC)C(=O)O)c2sccc12 [free acid Form D],Form after storage,[7],converted to free acid Form E
"CO[C@@H](Cc1ccc(OCCc2nc(-c3ccccc3)oc2C)c2ccsc12)C(=O)O [Aleglitazar, aleglitazar]",Serum TG levels compared with the vehicle group,[1]; Day 6 and Day 12,significantly lower
same,Random blood glucose reduction compared with the vehicle group,"[1]; Day 7, 0.2 mg/kg",reached statistical significance
same,Average daily body weights compared with the vehicle group,[1],significantly higher
same,"Level of lipid, free fatty acid and blood glucose compared with vehicle group",[1],significantly decreased
same,Blood sugar and blood lipid levels,[8],effectively reduce blood sugar and blood lipid levels
same,Heart failure risk,[8],a certain degree of heart failure risk
same,OGTT AUC0-120 min compared with the vehicle group,[2]; [9],significantly lower
same,OGTT blood glucose levels at each time point compared with the vehicle group,[2],significantly reduced
same,Weight Gain (g) compared with Day 0,[4]; [10],0.48 ± 0.27 g
same,Weight Gain (g) compared with Day 0,[4]; [11],1.66 ± 0.39 g
same,Weight Gain (g) compared with Day 0,[4]; [12],2.62 ± 0.42 g
same,Weight Gain (g) compared with Day 0,[4]; [13],3.50 ± 0.42 g
same,Weight Gain (g) compared with Day 0,[4]; [14],3.92 ± 0.4 g
same,Weight Gain (g) compared with Day 0,[4]; [15],4.81 ± 0.37 g
same,Weight Gain (g) compared with Day 0,[4]; [16],5.39 ± 0.56 g
same,"Weight gain, significance compared with vehicle, One-way ANOVA","[4]; 0.2 mg/kg, Day 4",* (* p < 0.05)
same,Daily average weight gain compared with the vehicle group,"[4]; 0.2 mg/kg, Day 4 and Day 5",significantly higher
same,"Weight gain, significance compared with vehicle, One-way ANOVA","[4]; 0.2 mg/kg, Day 5",* (* p < 0.05)
same,Weight Gain (g) compared with Day 0,[4]; [17],0.5 ± 0.2 g
same,Weight Gain (g) compared with Day 0,[4]; [18],1.64 ± 0.26 g
same,Weight Gain (g) compared with Day 0,[4]; [19],2.61 ± 0.51 g
same,Weight Gain (g) compared with Day 0,[4]; [20],3.33 ± 0.54 g
same,Weight Gain (g) compared with Day 0,[4]; [21],3.86 ± 0.49 g
same,Weight Gain (g) compared with Day 0,[4]; [22],4.98 ± 0.52 g
same,Weight Gain (g) compared with Day 0,[4]; [23],5.34 ± 0.50 g
same,Daily average weight gain compared with the vehicle group,"[4]; 1 mg/kg, Day 6",significantly higher
same,"Weight gain, significance compared with vehicle, One-way ANOVA","[4]; 1 mg/kg, Day 6",* (* p < 0.05)
same,Serum NEFA compared with the vehicle group,[5],significantly reduce
same,Serum TG compared with the vehicle group,[5],significantly reduce
same,"serum TG, significance compared with the first group (vehicle), One-way ANOVA",[5]; [24],* (*p < 0.05)
same,"serum TG, significance compared with the first group (vehicle), One-way ANOVA",[5]; [25],**** (****p < 0.0001)
same,Total score of renal focal lesions compared to the model group,[6],did not achieve statistically significant improvement
